Where a name gives a salt, the structure may show the parent alone.
How the values were obtained:
Test in all cases: MIC, NCCLS broth microdilution
Assay type in all cases: cell-based
[1] = system: Acinetobacter sp. J2; settings: Acinetobacter sp. J2; MIC of antibiotic compound 1 with the labelled bridged monobactam of formula II and clavulanate, 4 mg/L each
[2] = system: Stenotrophomonas malthophilia 1AC736; settings: Stenotrophomonas malthophilia 1AC736; MIC of antibiotic compound 1 with the labelled bridged monobactam of formula II and clavulanate, 4 mg/L each
[3] = system: Pseudomonas aeruginosa MK1184; settings: MIC of antibiotic compound 1 with the labelled bridged monobactam of formula II and clavulanate, 4 mg/L each
[4] = system: Pseudomonas aeruginosa 1973E; settings: MIC of antibiotic compound 1 with the labelled bridged monobactam of formula II and clavulanate, 4 mg/L each
In short: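 Growth inhibition read by eye after overnight incubation (30° C. or 37° C.) defines the MIC, using NCCLS M7-A5 broth microdilution with ≤1% DMSO. When combinations were tested, only the formula I compound was titrated and each partner was fixed at 4 μg/mL.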

[5] = system: Enterobacter cloacae P99; settings: MIC of antibiotic compound 1 with the labelled bridged monobactam of formula II and clavulanate, 4 mg/L each
[6] = system: Serratia marcescens S6; settings: MIC of antibiotic compound 1 with the labelled bridged monobactam of formula II and clavulanate, 4 mg/L each
[7] = system: Klebsiella pneumoniae CF104; settings: MIC of antibiotic compound 1 with the labelled bridged monobactam of formula II and clavulanate, 4 mg/L each

MIC of antibiotic at fixed inhibitor concentration (4 mg/L) [1] [µg/mL]	MIC of antibiotic at fixed inhibitor concentration (4 mg/L) [2] [µg/mL]	MIC of antibiotic at fixed inhibitor concentration (4 mg/L) [3] [µg/mL]	MIC of antibiotic at fixed inhibitor concentration (4 mg/L) [4] [µg/mL]	MIC of antibiotic at fixed inhibitor concentration (4 mg/L) [5] [µg/mL]	MIC of antibiotic at fixed inhibitor concentration (4 mg/L) [6] [µg/mL]	MIC of antibiotic at fixed inhibitor concentration (4 mg/L) [7] [µg/mL]	SMILES
>32	0.125	>32	4	32	0.25	2	O=C(NCc1ccccc1)N1CC[C@@H]2[C@H]1C(=O)N2S(=O)(=O)[O-].[Na+] [Compound 302]
4	0.125	>32	4	8	0.25	0.5	NC(=O)c1ccc(NC(=O)N2CC[C@@H]3[C@H]2C(=O)N3S(=O)(=O)[O-])cc1.[Na+] [Compound 311]
2	8	32	4	32	0.25	1	CN(C)n1ccc(SCC(=O)N2CC[C@@H]3[C@H]2C(=O)N3S(=O)(=O)O)nc1=O [Compound 203, (1S,5R)-2-{2-[1-(dimethylamino)-2-oxohydropyrimidin-4-ylthio]acetyl}-7-oxo-2,6-diazabicyclo[3.2.0]heptane-6-sulfonic acid]
>32	0.125	16	4	16	0.25	0.125	O=C(N[C@H]1CCNC1)c1ccc[n+](CC(=O)N2CC[C@@H]3[C@H]2C(=O)N3S(=O)(=O)[O-])c1 [Compound 122, 2-(2-{3-[N-((3S)pyrrolidin-3-yl)carbamoyl]pyridinium}acetyl)(1S,5R)-7-oxo-2,6-diazabicyclo[3.2.0]heptane-6-sulfonate, inner salt]
>32	0.125	16	4	4	0.5	2	CN(C)CCNC(=O)c1ccc(NC(=O)N2CC[C@@H]3[C@H]2C(=O)N3S(=O)(=O)[O-])cc1.[Na+] [Compound 310, Sodium(1S,5R)-2-[N-(4-{N-[2-(dimethylamino)ethyl]carbamoyl}phenyl)carbamoyl]-7-oxo-2,6-diazabicyclo[3.2.0]heptane-6-sulfonate]
>32	0.25	16	4	32	0.25	0.125	CCC(=O)c1cc[n+](CC(=O)N2CC[C@@H]3[C@H]2C(=O)N3S(=O)(=O)[O-])cc1 [Compound 117, (1S,5R)-7-oxo-2-[2-(4-propanoylpyridinium)acetyl]-2,6-diazabicyclo[3.2.0]heptane-6-sulfonate, inner salt]

Source: US20160122320A1, “USEFUL COMBINATIONS OF MONOBACTAM ANTIBIOTICS WITH BETA-LACTAMASE INHIBITORS” (Basilea Pharmaceutica AG, priority 2005, published 2016)
